Assay results reported in patent US7271278B2, “Application of chromium-amino acid complexes in the treatment of diabetes and other diseases” (The University of Wyoming, priority 2005, dated 2007).

Assays:
3T3-adipocytes = assay: 2-deoxy-D-[3H] glucose uptake in 3T3-L1 adipocytes; type: cell-based, mouse
Method: (§1) The 3T3-L1-pre-adipocytes were obtained from the American Type Culture Collection and were propagated at 37° C. in DMEM with 10% newborn calf serum plus 50 U/ml penicillin and 50 μg/ml streptomycin in an incubator under a humidified atmosphere of 5% CO2/95% air. Induction of differentiation was done one day post-confluence. Cells were maintained in differentiation medium of the following composition: DMEM, 10% FBS, […] dexamethasone, 0.5 mM 1-isobutyl-3-methylxanthine (IBMX) and ITS for three days. At day 3, the dexamethasone and IBMX were removed with ITS remaining on the cells for an additional two days. Differentiation was allowed to continue in DMEM supplemented with 10% FBS, ITS and the adipocytes were used between day 9 and 14 post-induction. Prior to the cellular assays, cells were serum starved by overnight incubation in DMEM (containing 0.2% serum).
Glucose uptake activity was analyzed by measuring the uptake of 2-deoxy-D-[^3H] glucose as described previously (Sakoda et al. (1999) Diabetes, 48:1365-1371). Briefly, confluent 3T3-L1 adipocytes grown in 6-well plates were washed twice with serum-free DMEM and incubated with 2 ml of the same medium at 37° C. for 2 hours. The cells were washed 3 times with Krebs-Ringer-HEPES (KRH) buffer and incubated with 2 ml KRH buffer at 37° C. for 30 minutes. Insulin (6 nM) and/or Cr(pa)3 (0-25 μM) were then added to adipocytes accompanying the procedure of differentiation. Glucose uptake was initiated by the addition of 0.1 ml KRH buffer and 2-deoxy-D-[^3H] glucose (0.2 μCi/ml) and 5 mM glucose as final concentrations. Glucose uptake was terminated by washing the cells three times with cold PBS. The cells were lysed overnight with 1 ml 0.5M NaOH and 0.1% SDS (w/v). The radioactivity retained by the cell lysates was determined by a scintillation counter (Beckmann LC 6000IC) and normalized to protein amount measured with a Micro BCA Protein Assay Kit (Pierce Chemical, Rockford, Ill.).

ob/ob(+/+) mice [1] = assay: Insulin-challenge test in ob/ob(+/+) and lean mice; type: in vivo, mouse; conditions: vs vehicle-treated group
Description: All animal treatment procedures described in this study were approved by the Animal Care and Use Committee at University of Wyoming (Laramie, Wyo.). Homozygous B6.Vlep/J male mice purchased from the Jackson Laboratory (Bar Harbor, Me.) at age 5 weeks were divided randomly into two weight-matched groups, marked as ob/ob(+/+) control and ob/ob(+/+) treatment (n=12). Number and age-matched normal C57 mice were used as lean control. All animals were maintained on conventional laboratory diet under well-controlled conditions of temperature (22±2° C.), humidity (55±5%) and 12 hours/12 hours light-dark cycle and had ad libitum access to water and standard rodent chow. Cr(D-Phe)3 was provided in the drinking water and, on the basis of water intake, was administered to provide an intake of about 150 μg/kg/day corresponding to about 10-15 μg elemental Cr/kg/day) for ob/ob(+/+) and lean treatment groups. […] The livers of these mice were frozen in liquid nitrogen immediately and stored at −80° C. until use. […] Weights of body and other organs were measured with a standard laboratory scale.
At the end of the treatment schedule, mice were given intraperitoneal injections of insulin (1 U/kg body weight). Blood glucose levels were determined by the tail-clip method at different time points as described hereinabove.

Akt [2] = assay: Hepatic Akt and insulin receptor phosphorylation, Western blot of liver homogenates; type: in vivo, mouse; conditions: obese mice
Description: (§2) All animal treatment procedures described in this study were approved by the Animal Care and Use Committee at University of Wyoming (Laramie, Wyo.). Homozygous B6.Vlep/J male mice purchased from the Jackson Laboratory (Bar Harbor, Me.) at age 5 weeks were divided randomly into two weight-matched groups, marked as ob/ob(+/+) control and ob/ob(+/+) treatment (n=12). Number and age-matched normal C57 mice were used as lean control. All animals were maintained on conventional laboratory diet under well-controlled conditions of temperature (22±2° C.), humidity (55±5%) and 12 hours/12 hours light-dark cycle and had ad libitum access to water and standard rodent chow. Cr(D-Phe)3 was provided in the drinking water and, on the basis of water intake, was administered to provide an intake of about 150 μg/kg/day corresponding to about 10-15 μg elemental Cr/kg/day) for ob/ob(+/+) and lean treatment groups. […] The livers of these mice were frozen in liquid nitrogen immediately and stored at −80° C. until use. Blood was collected from the heart, and the serum was extracted by centrifuging the blood at 1000 g at 4° C. and stored at −80° C. Weights of body and other organs were measured with a standard laboratory scale.
Liver tissues lysates were subjected to Western blot analysis as described hereinabove using phospho specific antibodies against Akt. Blots were then stripped and re-probed with antibodies directed against antibodies directed at the total protein.

pUC19 DNA = assay: Ascorbate-stimulated cleavage of pUC19 DNA; conditions: 1.2 μM, ascorbic acid, pUC19 DNA 38 μM
Method: DNA cleavage-stimulated by chromium compounds was assessed as described previously (Speetjens et al. (1999) Chem. Res. Toxicol., 12:483-487). All solutions were prepared using Chelex-100 treated water to remove any traces of metal ions. […] Reactions were allowed to proceed 60 minutes at room temperature followed by quenching with 2 μl of nucleic acid sample loading buffer. The mixtures were loaded directly onto a 1% agarose gel pre-stained by ethidium bromide and electrophoresed at 60 V. The gels were photographed on a UV transilluminator.

ob/ob(+/+) mice [3] = assay: Plasma/serum lipids (total cholesterol, HDL) in obese mice; type: in vivo, mouse
Method: Specifically, mice were treated with Cr(pa)3 at 150 μg/kg/day for six weeks. Cholesterol levels were determined by using a kit from Equal Diagnostics (Exton, Pa.) following the manufacturer's protocol.
as §2
Serum levels of total cholesterol, high-density-lipoprotein (HDL) and triglycerides were measured using commercial kits (from Equal Diagnostics, Exton, Pa.) and SpectraMax 340PC^384 Microplate Reader System (Molecular Device, Sunnyvale, Calif.).

Akt [4] = assay: Insulin-stimulated Akt (thr308) phosphorylation, Western blot of 3T3-adipocyte lysates; type: cell-based, mouse
Method: as §1
(§3) Cells were lysed in RIPA buffer (150 mM NaCl, 0.25% sodium desoxycholate, 1% NP-40, 1 mM EDTA and 50 mM Tris, pH 7.2) containing 2 mM sodium vanadate, 1 μM PMSF, 1 μM sodium fluoride, 1 μg/ml aprotinin, 1 μg/ml leupeptin, and 1 μM pepstatin and sonicated to reduce the sample viscosity. The lysate was centrifuged at 15000×g for 15 minutes at 4° C. and the protein concentration in the supernatant was determined by the bicinchoninic acid method. Equivalent amounts of proteins were boiled in Laemmli sample buffer. Proteins 10-20 μg were separated on 7.5-10% polyacrylamide gel, and electrophoretically transferred to a nitrocellulose membrane. The membranes were incubated for 1 hour at room temperature in blocking buffer (5% w/v non-fat dry milk in tris buffered saline containing 0.1% Tween 20). Membranes were incubated in appropriate phospho-specific primary antibody for insulin receptor beta or Akt at 1:2500 dilutions in the blocking buffer followed by incubation with horseradish peroxidase-coupled secondary antibodies with appropriate specificity. Immunoreactive bands were visualized using enhanced chemiluminescence reagents (Cell Signaling Technology, Inc, Beverly, Mass.). Blots were then stripped and re-probed with antibodies directed against insulin receptor β and Akt.

[5] = Body and organ weight of ob/ob(+/+) mice after 6-week treatment; type: in vivo, mouse
Description: (§4) All animal treatment procedures described in this example were approved by the animal Care and Use Committee at University of Wyoming (Laramie, Wyo.). Homozygous B6.V-lep ob>/J male mice purchased from the Jackson Laboratory (Bar Harbor, Me.) at age 5 weeks were divided randomly into two weight-matched groups, marked as ob/ob(+/+) control and ob/ob(+/+) treatment (n=10). Number, age and weight matched normal C57 mice were used as lean control. All of these animals were maintained on conventional laboratory diet under well-controlled conditions of temperature (22±2° C.), humidity (55±5%) and 12 hour/12 hour light-dark cycle and had ad libitum access to water and standard rodent chow. Rodent diet and tap water were consumed by mice ad libitum. Cr(pa)3 was provided in the drinking water and, on the basis of water intake, was administered to provide an intake of about 150 μg/kg/day corresponding to about 10-15 μg elemental Cr/kg/day for ob/ob(+/+) and lean treatment groups. The dosage of chromium used was based on earlier animal studies reported with chromium picolinate (Cefalu et al. (2002) J. Nutr., 132:1107-1114).
All animal treatment procedures described in this study were approved by the Animal Care and Use Committee at University of Wyoming (Laramie, Wyo.). […] Weights of body and other organs were measured with a standard laboratory scale.

[6] = Deoxyribose degradation assay for generation of hydroxyl radicals
Method: The potential of chromium compounds to generate hydroxyl radicals in vitro was assessed by the method reported previously (Halliwell et al. (1987) Anal. Biochem., 165:215-219). Briefly, a reaction mixture containing either chromium picolinate or Cr(pa)3, 2-deoxyribose (4 mM), ascorbic acid (100 μM) and hydrogen peroxide (100 μM) in potassium phosphate buffer (pH 7.4, 10 mM) was incubated at 37° C. for 30 minutes. An aliquot of the mixture was treated with 1% (w/v) thiobarbituric acid and 2.8% (w/v) trichloroacetic acid and heated at 90° C. for 10 minutes, rapidly cooled and the amount of chromogen formed in the sample was measured by its absorption at 532 nm. Ferric-EDTA (100 μM) was used as a positive control.

ob/ob(+/+) mice [7] = assay: Intraperitoneal glucose tolerance test (IPGTT) in ob/ob(+/+) and lean mice; type: in vivo, mouse
Description: as §4
At the end of the treatment schedule, mice were subjected to the intraperitoneal glucose tolerance test (IPGTT) as described previously (Hintz et al. (2003) Int. J. Obes. Relat. Metab. Disord., 27:1196-1203). Briefly, the mice were fasted for 12 hours and then given intraperitoneal injection of glucose (2 g/kg body weight). Glucose levels were determined in blood drops obtained by clipping the tail of the mice immediately before glucose challenge, as well as at 15, 60 and 120 minutes thereafter. Serum glucose levels were determined using ACCU-CHEK® Advantage® Glucose Analyzer (Roche Diagnostics Corporation, Ind.). Results of IPGTT are also expressed as integrated areas under the curves (AUC) over 120 minutes for glucose calculated by using the WinNonlin software (Pharsight Corporation, Mountain View, Calif.).

ob/ob(+/+) mice [8] = assay: Lipid-peroxidation (malondialdehyde) and protein carbonyl in liver homogenate of treated mice; type: in vivo, mouse; conditions: obese mice, 150 μg/kg/day 6 weeks, vs untreated obese
Description: All animal treatment procedures described in this study were approved by the Animal Care and Use Committee at University of Wyoming (Laramie, Wyo.). Homozygous B6.Vlep/J male mice purchased from the Jackson Laboratory (Bar Harbor, Me.) at age 5 weeks were divided randomly into two weight-matched groups, marked as ob/ob(+/+) control and ob/ob(+/+) treatment (n=12). Number and age-matched normal C57 mice were used as lean control. All animals were maintained on conventional laboratory diet under well-controlled conditions of temperature (22±2° C.), humidity (55±5%) and 12 hours/12 hours light-dark cycle and had ad libitum access to water and standard rodent chow. […] Weights of body and other organs were measured with a standard laboratory scale.
The end product of lipid-peroxidation, namely malondialdehyde (MDA), was estimated in the liver tissue homogenates by the colorimetric kit (Bioxytech LPO-586, Portland, Oreg.) using 1,1,3,3-tetra-ethoxypropane as a standard according to the manufacturer's specifications. This assay is based on the reaction of a chromogenic reagent N-methyl-2-phenylindole with MDA at 45° C. which yields a stable chromophore with absorbance maxima at 586 nm. […]

[9] = In vitro lipid-peroxidation of rat brain homogenate stimulated by hydrogen peroxide and ascorbate; type: biochemical; conditions: rat-brain homogenate 10% w/v, hydrogen peroxide 1 mM, ascorbate 1 mM, 30 min; concentration-dependent
Method: The end product of lipid-peroxidation, namely malondialdehyde (MDA), was estimated in the liver tissue homogenates by the colorimetric kit (Bioxytech LPO-586, Portland, Oreg.) using 1,1,3,3-tetra-ethoxypropane as a standard according to the manufacturer's specifications. This assay is based on the reaction of a chromogenic reagent N-methyl-2-phenylindole with MDA at 45° C. which yields a stable chromophore with absorbance maxima at 586 nm. Ability of Cr(D-Phe)3 to inhibit in vitro lipid-peroxidation was assessed in rat-brain homogenates (10% w/v) by incubating Cr(D-Phe)3 in the presence of hydrogen peroxide (1 mM) and ascorbic acid (1 mM) for 30 min at 37° C. followed by measuring MDA as described previously (Sreejayan et al. (1994) J. Pharm. Pharmacol., 46:1013-1016).

insulin receptor beta = assay: Insulin-stimulated IRβ tyrosine phosphorylation, Western blot of 3T3-adipocyte lysates; type: cell-based, mouse
Method: as §1
as §3, with “Blots were then stripped and re-probed with antibodies directed against insulin receptor β and Akt.” left out

Structure (SMILES): N[C@H](Cc1ccccc1)C(=O)O.[Cr+3] [Cr(pa)3, chromium (III) D-phenylalanine]
- insulin-stimulated glucose uptake (3T3-adipocytes; Cr(pa)3 5 and 25 μM, insulin 6 nM, vs insulin-stimulated untreated cells): significantly augmented
- basal glucose uptake (3T3-adipocytes; absence of insulin): did not have any effect
- blood glucose level after insulin-challenge, lean mice (ob/ob(+/+) mice [1]): failed to further lower the blood glucose level
- levels of phospho-Akt in liver homogenate (Akt [2]; oral 150 μg/kg/day 6 weeks, basal): failed to significantly enhance
- levels of total Akt protein in liver homogenate (Akt [2]; oral treatment): Neither did the treatment alter
- phosphorylation of insulin-receptors in liver (Akt [2]; same blots reprobed for phosphorylated insulin receptor beta): no changes
- DNA strand breaks (supercoiled to circular nicked pUC19) (pUC19 DNA): failed to induce any strand breaks
- serum HDL-cholesterol levels (ob/ob(+/+) mice [3]; 150 μg/kg/day 6 weeks): did not alter
- total serum cholesterol levels (ob/ob(+/+) mice [3]; 150 μg/kg/day 6 weeks (Example 2)): significant lowering
- plasma cholesterol levels (ob/ob(+/+) mice [3]; 150 μg/kg/day six weeks (Example 1)): significantly attenuated
- phosphorylation levels of Akt (Akt [4]; Cr(pa)3 alone, absence of insulin): did not alter
- stimulation of insulin-stimulated Akt phosphorylation compared to chromium picolinate (Akt [4]; equimolar concentrations): greater stimulation
- in vitro Akt phosphorylation among various chromium complexes (Akt [4]; insulin 10 nM, vs Cr(Pic)3, Cr(AcAc)3, Cr(Sal)3, CrCl3): greatest amount
- insulin-stimulated Akt (thr308) phosphorylation (Akt [4]; pretreatment, insulin 10 nM, concentration- and time-dependent): further increase
- difference in body weight ([5]; ob/ob(+/+) mice treated vs untreated): no significant difference
- body-mass indices (body, heart, liver, kidney weights) ([5]; obese mice, 150 μg/kg/day six weeks): did not alter
- degradation of deoxyribose ([6]; 1.2 μM): failed to cause any degradation of deoxyribose
- AUC of glucose, lean mice (ob/ob(+/+) mice [7]; lean mice, treated vs untreated): no significant changes
- serum glucose levels post-glucose-challenge (ob/ob(+/+) mice [7]; ob/ob(+/+) mice, 150 μg/kg/d 6 weeks, 15 and 60 minutes, vs untreated): significantly lower
- integrated AUC over 120 minutes of glucose (ob/ob(+/+) mice [7]; ob/ob(+/+) mice, 150 μg/kg/d 6 weeks, vs untreated): significantly lower
- malondialdehyde (lipid-peroxidation) in liver homogenate (ob/ob(+/+) mice [8]): significantly lower
- protein carbonyl formation in liver homogenate (ob/ob(+/+) mice [8]): significantly lower
- in vitro lipid-peroxidation (malondialdehyde equivalents) [9]: inhibited
- protein levels of insulin receptor (insulin receptor beta; 3T3-adipocytes): does not increase
- IRβ phosphorylation induced by submaximal insulin (insulin receptor beta; insulin 1 nM): not altered
- insulin-stimulated IRβ tyrosine phosphorylation (insulin receptor beta; pretreatment for various time or at different concentrations, insulin 10 nM 10 minutes): not altered

Structure (SMILES): O=C([O-])CN(CCN(CC(=O)[O-])CC(=O)O)CC(=O)[O-].[Fe+3] [Ferric-EDTA, reference compound]
- hydroxyl radical production over control / reagent blank ([6]; chromium picolinate 1.2 μM, Ferric-EDTA 100 μM, ascorbic acid and hydrogen peroxide 100 μM): about 3.5 fold
